In BindingDB's records for doi:10.1111/cbdd.12330 (Institute of Experimental Botany Ascr and Palacky University, 2014):

Assays:
Test in all cases: Kinase Selectivity
[1] = molecular target: Cyclin-dependent kinase 1 (Homo sapiens, UniProt P06493)
Procedure: (§1) Cyclin-dependent kinase selectivity was evaluated using CDK1-cyclin B, CDK2-cyclin E, CDK4-cyclin D1, CDK7-cyclin H, and CDK9-cyclin T1.

[2] = molecular target: Cyclin-dependent kinase 2 (Homo sapiens, UniProt P24941)
Procedure: as §1

[3] = molecular target: Cyclin-dependent kinase 4 (Homo sapiens, UniProt P11802)
Procedure: as §1

[4] = molecular target: Cyclin-dependent kinase 7 (Homo sapiens, UniProt P50613)
Procedure: as §1

[5] = molecular target: Cyclin-dependent kinase 9 (Homo sapiens, UniProt P50750)
Procedure: as §1

Sequence of Cyclin-dependent kinase 1 (P06493 whole entry): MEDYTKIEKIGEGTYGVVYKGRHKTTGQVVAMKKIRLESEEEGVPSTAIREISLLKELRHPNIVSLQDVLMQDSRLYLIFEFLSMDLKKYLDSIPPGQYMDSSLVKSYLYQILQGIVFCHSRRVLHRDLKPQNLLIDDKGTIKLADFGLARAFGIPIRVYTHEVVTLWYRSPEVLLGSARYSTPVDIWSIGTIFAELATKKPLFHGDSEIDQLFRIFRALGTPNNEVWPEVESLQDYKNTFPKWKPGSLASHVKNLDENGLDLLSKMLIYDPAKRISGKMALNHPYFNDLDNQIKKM
Sequence of Cyclin-dependent kinase 7 (P50613 whole entry): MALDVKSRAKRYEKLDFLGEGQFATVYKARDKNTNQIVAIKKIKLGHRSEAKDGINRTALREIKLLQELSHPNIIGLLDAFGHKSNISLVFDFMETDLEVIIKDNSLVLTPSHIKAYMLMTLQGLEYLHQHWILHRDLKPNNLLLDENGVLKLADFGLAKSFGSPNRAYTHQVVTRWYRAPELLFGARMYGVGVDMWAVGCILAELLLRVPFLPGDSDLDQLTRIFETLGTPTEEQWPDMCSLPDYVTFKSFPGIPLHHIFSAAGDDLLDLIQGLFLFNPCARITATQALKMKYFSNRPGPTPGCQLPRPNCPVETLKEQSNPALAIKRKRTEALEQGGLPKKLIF
Sequence of Cyclin-dependent kinase 4 (P11802 whole entry): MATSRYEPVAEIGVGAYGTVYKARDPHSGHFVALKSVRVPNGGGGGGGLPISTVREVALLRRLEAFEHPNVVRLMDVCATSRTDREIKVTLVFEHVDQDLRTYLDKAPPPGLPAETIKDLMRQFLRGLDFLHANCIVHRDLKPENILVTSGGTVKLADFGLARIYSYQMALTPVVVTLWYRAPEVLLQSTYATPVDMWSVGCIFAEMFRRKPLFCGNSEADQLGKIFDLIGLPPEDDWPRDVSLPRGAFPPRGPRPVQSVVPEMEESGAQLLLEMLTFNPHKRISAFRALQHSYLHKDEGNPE
Sequence of Cyclin-dependent kinase 9 (P50750 whole entry): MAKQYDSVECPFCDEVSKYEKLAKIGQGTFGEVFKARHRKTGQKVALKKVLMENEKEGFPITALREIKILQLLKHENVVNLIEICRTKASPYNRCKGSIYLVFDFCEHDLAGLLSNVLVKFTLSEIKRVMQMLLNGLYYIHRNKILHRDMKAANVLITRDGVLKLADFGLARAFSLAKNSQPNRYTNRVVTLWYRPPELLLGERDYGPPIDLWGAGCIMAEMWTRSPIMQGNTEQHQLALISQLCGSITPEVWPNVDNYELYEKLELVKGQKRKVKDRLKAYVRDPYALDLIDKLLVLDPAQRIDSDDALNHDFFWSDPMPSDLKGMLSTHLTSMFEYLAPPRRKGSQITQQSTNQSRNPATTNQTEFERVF

IC50 [1]: 1330 nM
IC50 [2]: 549 nM
IC50 [3]: 454 nM
IC50 [4]: 14900 nM
IC50 [5]: 280 nM
SMILES: Nc1n[nH]c(N)c1/N=N/c1ccncc1 [AAP1742]
